Data reported in article PMC10788856, “Mimicking Nonribosomal Peptides from the Marine Actinomycete Streptomyces sp. H-KF8 Leads to Antimicrobial Peptides” (ACS Infectious Diseases, 2023).

Tests used:
[1] = test system: Escherichia coli (CCUG 31246); experiment: Minimum microbicidal concentration (MMC99) assay; assay type: cell-based, E. coli; conditions: BHI diluted 1/100, 37 °C, median, n = 3
Procedure: The microbicidal activity of the synthetic peptides was assessed against S. aureus (ATCC 12600; American Type Culture Collection, Manassas, VA, USA), Escherichia coli (CCUG 31246; Culture Collection, University of Gothenburg, Sweden), and Candida albicans (ATCC 64549/CCUG31028) using an MMC assay, as described previously by […] et al. (specific details in Supporting Information, pages 10, 11).[28] The assay was performed in BHI diluted 1/100 (BHI100). […] page 11: Table S5. Energy and structural ensembles of synthesized peptides. […] Energy -3887.06 -3620.88 -4968.42 -2163.76 -2646.75 Van der Waals solv. Energy 117.32 91.57 183.20 -88.88 -139.89 Mean RMSD* (Å), mean±SD […] Heavy atoms 1.87 ± 0.33 1.77 ± 0.50 0.98 ± 0.34 0.63 ±0.22 2.88 ±0.62 MMC99 activity including salt stability measurements Antimicrobial activity of L2 and L3 in the presence of NaCl. 1Table S6. Peptide MMC99 (μg/ml) sin NaCl S. aureus E.coli C. albicans (mM) 2[…] 0 50 25 25 85 - - - - - - >200 >200 >200 150 - - - - - - >200 >200 >200 3L 0 12.5 12.5 25 12,5 6.3 6.3 12.5 6.3 12.5 […] 150 >400 >400 (-)2 >400 >400 >400 >200 >200 >200 […] or 150 mM NaCl. L2 and L3 were serially diluted in twofold steps with a starting dilution of 200 μg/ml […] All sample dilutions were run in duplicates (L2) or triplicates (L3). 2 The growth of S. aureus at 24 h in BHI 100 with 85 or 150 mM NaCl was reduced. Minimum microbicidal concentration (MMC), killing 99% of the inoculum. All microorganisms were cultured in brain-heart infusion broth (BHI) overnight on a shaker at 37°C. The cultures were thereafter transferred to fresh BHI broth in volumes constituting 10% of total, and incubated for an additional 2 h to reach exponential growth phase. The bacterial cultures were washed once in BHI diluted 1/100 (BHI100), followed by resuspension in BHI100. The cell suspensions were diluted to a density of […] (bacteria) or 2x10^7 CFU/ml (yeast), as estimated by optical density measurement at 590 nm. […] Serum stability Figure S 133. […] A) peptide L2 B) peptide L3. C) peptide L3-K. D) peptide C3.

E. coli CCUG31246 [2] = assay type: cell-based; conditions: 1:10 BHI; 5 × 10^5 CFU/mL; 37 °C, 16 h; highest concentration 512 μg/mL; median, n = 3
Procedure: MICs were performed under the same growth conditions used for mode of action analysis following the guidelines issued by the Clinical Laboratory Standardization Institute (CLSI) with slight modifications. Serial two-fold dilutions of the peptides were prepared in 1:10 BHI in a sterile 96-well plate and subsequently inoculated with 5 × 10^5 CFU/mL of E. coli CCUG31246. […] The following MICs were obtained: C3: 512 μg/mL, L3: 64 μg/mL, and L3-K: 128 μg/mL. These concentrations were used for all mechanistic experiments. Polymyxin B was used as a positive control in all assays at a final concentration of 10 μg/mL.

E. coli CCUG31246 [3] = experiment: Bacterial cytological profiling (DAPI, FM4-64, phase contrast); assay type: cell-based; conditions: polymyxin B 10 μg/mL
Procedure: To gain insight into the peptides’ antimicrobial mechanisms, bacterial cytological profiling was performed. This live-cell imaging method makes use of different fluorescent dyes and protein fusions together with phase contrast microscopy to assess the phenotype of bacterial cells after antibiotic treatment.[33] Single-cell analysis then gives insight into the extent and population heterogeneity of the observed phenotypic effects. In this study, we used the DNA dye DAPI and the membrane dye FM4-64 and analyzed the effects of the compounds on cell length, nucleoid compaction, and membrane morphology (Figures 6 and S15). […] In the preparation of mechanistic studies, MICs were determined. […]
Bacterial cytological profiling was performed according to Wenzel et al.[34] […] Stained samples were spotted on 1.2% agarose films, sealed with a gene frame, and immediately imaged using a Nikon Eclipse Ti2 inverted fluorescence live-cell imaging system equipped with a CFI Plan Apochromat DM Lambda 100X Oil objective (N.A. = 1.45 and W.D. = 0.13 mm), a Photometrics, PRIME BSI camera, a Lumencor Sola SE II FISH 365 light source, and an Okolab temperature incubation chamber. Images were obtained using the NIS elements AR software version 5.21.03 and were processed and analyzed with ImageJ.[53] Quantification of microscopy images was performed using the ImageJ plugins ObjectJ[54] and MicrobeJ.[55] […]

E. coli CCUG31246 [4] = experiment: Propidium iodide staining (pore formation); assay type: cell-based; conditions: 1× MIC of peptide, polymyxin B 10 μg/mL; 10 and 60 min
Procedure: Due to the overall similarity of the peptides’ cytological profiles to that of polymyxin B, we further tested their ability to form pores in the cell membrane. To this end, we used the fluorescence probe propidium iodide, which cannot cross intact membranes but can enter cells through pores of sufficient size.[39]
Pore formation was investigated with the fluorescence dye propidium iodide as described previously[56] with minor modifications. E. coli CCUG31246 was grown to an OD600 of 0.3 and subsequently treated with different peptides for 10 and 60 min. Samples were stained with 1 μg/mL propidium iodide for 15 min (added 5 min before adding antibiotics for the 10 min time point and after 45 min of antibiotic treatment for the 60 min time point), spotted on 1.2% agarose films, and sealed with a gene frame. Microscopy was performed as described above. The fluorescence intensity of the different samples was analyzed with MicrobeJ. For detection of bacterial cells from phase contrast images, parameters were set to an area of 1.5-max, length of 1-max, width 0.5–2.5, curvature 0–1.5, and an angularity of 0–0.5. Fluorescence intensity parameters were set to an area of 1.5-max, length of 1-max, and width 0.5–2.5. All other parameters remained at default settings.

E. coli CCUG31246 [5] = experiment: DiSC(3)5 microscopy (membrane potential); assay type: cell-based; conditions: 1× MIC of peptide, polymyxin B 10 μg/mL; 10 min; 0.5 μM DiSC(3)5
Description: Propidium iodide is a large organic molecule that is not suitable to detect smaller ion-conducting pores or channels induced by antimicrobials. To assess whether the peptides may form smaller membrane pores sufficient for the passage of ions, we tested their effects on the membrane potential using the fluorescence probe DiSC(3)5.[40] This dye accumulates in the cell membrane in a membrane potential-dependent manner and disassociates, when the membrane potential is dissipated. […] This effect can be clearly seen with polymyxin B (Figure 7b).
The membrane potential of E. coli CCUG31246 and E. coli MC4100 carrying pABCON2-fhuA ΔC/Δ4L was measured by DiSC(3)5 microscopy according to ref. ([40]) with minor modifications. Cells were grown in 1:10 BHI containing 50 μg/mL bovine serum albumin to an OD600 of 0.3 prior to antibiotic treatment with the respective peptides for 10 and 60 min. Samples were stained with 0.5 μM DiSC(3)5 for 15 min (added 5 min before adding antibiotics for the 10 min time point and after 45 min of antibiotic treatment for the 60 min time point). Stained samples were spotted on 1.2% agarose, sealed with a gene frame, and imaged immediately. Microscopy was performed as described above, and fluorescence intensity was analyzed with the same parameters used for propidium iodide detection.

polymyxin B [PolB, reference compound]
E. coli MMC99 2 h ([1]; 2 h): <1.6 µg/mL
E. coli MMC99 6 h ([1]; 6 h): <1.6 µg/mL
E. coli MMC99 24 h ([1]; 24 h): <1.6 µg/mL
E. coli MIC (E. coli CCUG31246 [2]): 2.3 µg/mL
cells with unstained (reduced FM4-64 membrane stain) phenotype after 10 min (E. coli CCUG31246 [3]): over 90%
propidium iodide uptake (E. coli CCUG31246 [4]): near-instantaneous uptake of the dye throughout the bacterial population
membrane potential, DiSC(3)5 fluorescence, 10 min (E. coli CCUG31246 [5]): clear and immediate reduction in the DiSC(3)5 fluorescence intensity
